The text below walks through data of paper PMC7457178 (Biomolecules & Therapeutics, 2020).

One data set concerns HDAC5 phosphorylation. The data set is described as follows: Angiotensin II-induced HDAC5 phosphorylation in neonatal cardiomyocytes. The settings on record: 0.1 µM angiotensin II.
Data set [1] has as its system neonatal rat cardiomyocytes. The data set is described as follows: Angiotensin II-induced cellular hypertrophy in neonatal cardiomyocytes. The conditions noted are these: 0.1 µM angiotensin II, 4 days.
The next data set is described as follows: Cytotoxicity, L929. Format: cell-based. The conditions noted are these: mouse, L929 cells.
The nature of another data set: Cytotoxicity, HFL-1. Format: cell-based. The settings on record: human, HFL-1 cells.
The next data set is described as follows: in vivo. The settings on record: Sprague-Dawley (S.D.), rat, iv, 10 mg/kg, Kp (ratio of tissue to plasma concentration), 10 mg/kg i.v.
A further data set deals with S.D. rats. In words: Post-MI chronic heart failure model. The data set is classed as in vivo, rat. The settings on record: for Fractional shortening / Left ventricular ejection fraction: 12 weeks after coronary artery ligation.
The target in the next data set is hERG channel (Homo sapiens, UniProt Q12809). In words: Patch clamp for the hERG channel. The data set is classed as cell-based. Background: In patch-clamp work, channel activity is measured electrically.
hERG channel, sequence (Q12809 whole entry): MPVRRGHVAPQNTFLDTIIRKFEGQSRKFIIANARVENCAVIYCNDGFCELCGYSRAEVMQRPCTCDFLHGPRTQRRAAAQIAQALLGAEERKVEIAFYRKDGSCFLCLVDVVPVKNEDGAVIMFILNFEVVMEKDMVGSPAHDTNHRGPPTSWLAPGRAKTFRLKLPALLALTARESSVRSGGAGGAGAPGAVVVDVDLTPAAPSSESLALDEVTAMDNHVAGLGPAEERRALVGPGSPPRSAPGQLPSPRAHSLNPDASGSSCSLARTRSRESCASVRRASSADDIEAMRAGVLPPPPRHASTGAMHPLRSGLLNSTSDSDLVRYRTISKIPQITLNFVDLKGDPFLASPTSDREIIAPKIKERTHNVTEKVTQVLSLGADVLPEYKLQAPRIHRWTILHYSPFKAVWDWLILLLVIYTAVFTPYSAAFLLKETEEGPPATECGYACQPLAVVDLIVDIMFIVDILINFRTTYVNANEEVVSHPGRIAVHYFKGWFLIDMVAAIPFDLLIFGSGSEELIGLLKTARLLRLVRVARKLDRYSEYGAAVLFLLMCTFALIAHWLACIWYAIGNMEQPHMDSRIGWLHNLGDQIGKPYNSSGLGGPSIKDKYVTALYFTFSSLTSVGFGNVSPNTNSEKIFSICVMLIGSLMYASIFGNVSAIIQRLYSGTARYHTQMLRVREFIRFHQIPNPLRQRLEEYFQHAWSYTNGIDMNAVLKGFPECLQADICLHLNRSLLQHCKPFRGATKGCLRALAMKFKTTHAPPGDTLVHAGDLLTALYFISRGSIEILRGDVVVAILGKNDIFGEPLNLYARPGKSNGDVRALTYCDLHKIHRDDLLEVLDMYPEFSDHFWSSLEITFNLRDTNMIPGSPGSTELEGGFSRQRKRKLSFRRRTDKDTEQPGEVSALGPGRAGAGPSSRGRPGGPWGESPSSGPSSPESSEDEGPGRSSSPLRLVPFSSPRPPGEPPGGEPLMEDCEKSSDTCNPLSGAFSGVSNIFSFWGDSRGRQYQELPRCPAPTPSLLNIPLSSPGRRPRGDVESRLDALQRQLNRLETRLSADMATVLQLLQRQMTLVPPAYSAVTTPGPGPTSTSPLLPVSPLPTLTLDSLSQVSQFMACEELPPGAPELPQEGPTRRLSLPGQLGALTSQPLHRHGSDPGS
The target of the next data set is T1, GRK2 (Homo sapiens, UniProt P25098).
T1 sequence (P25098 1-689): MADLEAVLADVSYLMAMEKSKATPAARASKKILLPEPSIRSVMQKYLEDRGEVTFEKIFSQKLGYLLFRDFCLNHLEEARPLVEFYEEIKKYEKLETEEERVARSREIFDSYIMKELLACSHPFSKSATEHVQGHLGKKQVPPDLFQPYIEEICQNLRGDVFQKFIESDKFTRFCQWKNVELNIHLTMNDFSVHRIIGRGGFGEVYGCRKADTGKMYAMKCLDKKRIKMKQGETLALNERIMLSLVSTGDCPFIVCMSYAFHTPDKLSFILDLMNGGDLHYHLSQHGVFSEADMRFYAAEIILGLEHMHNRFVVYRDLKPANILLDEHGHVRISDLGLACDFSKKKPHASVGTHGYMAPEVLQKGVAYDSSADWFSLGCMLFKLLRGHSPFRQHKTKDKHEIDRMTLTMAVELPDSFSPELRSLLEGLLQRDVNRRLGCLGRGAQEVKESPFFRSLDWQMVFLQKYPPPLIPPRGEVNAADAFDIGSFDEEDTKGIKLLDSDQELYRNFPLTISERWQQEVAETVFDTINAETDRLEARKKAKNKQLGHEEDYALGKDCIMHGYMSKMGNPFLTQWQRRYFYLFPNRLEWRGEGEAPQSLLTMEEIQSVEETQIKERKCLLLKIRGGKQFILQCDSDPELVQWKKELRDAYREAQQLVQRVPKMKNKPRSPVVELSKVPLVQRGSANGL
The data set is described as follows: Inhibitory activity against GRK2. Format: biochemical. The conditions noted are these: read-out: Inhibition of GRK2.

The next data set concerns C57BL/6 mice. The data set is described as follows: Transverse aortic constriction. The conditions noted are these: 30 mg/kg daily oral, 14 days.
Data set [2] is described as follows: Pharmacokinetic study in rats. The data set is classed as in vivo. The settings on record: rat.
Another data set is described as follows: Cytotoxicity, VERO. Format: cell-based. The conditions noted are these: African green monkey, VERO cells.
Another data set can be described thus: Cytotoxicity, NIH3T3. Format: cell-based. The settings on record: mouse, NIH3T3 cells.
Setting [3] is: 30 mg/kg/day p.o., 12 weeks after MI.
The mark [4] stands for this setting: Sprague-Dawley (S.D.), plasma, iv, 5 mg/kg.
Setting [5] is: Sprague-Dawley (S.D.), plasma, po, 300 mg/kg.

The structures appear in SMILES notation.

Usually EC50 stands for the midpoint of the concentration-response curve. A low value points to higher potency in that assay. For orientation: Kp means tissue or fluid exposure divided by exposure in the circulation. One may read the IC50 as the concentration needed to halve the response being measured. A low value points to inhibition by little substance. In general, inhibition refers to the share of the control response that was lost under treatment. A word on the AUC(0-inf): it is the area under the concentration-time curve extrapolated to infinity. A lower AUC(0-inf) goes with less exposure. The Vd is the apparent volume that relates the amount in the body to the concentration in plasma or blood. Read a high Vd as wide distribution into tissue. One may read the clearance as the volume of plasma or blood freed of the substance per unit of time. A low value points to inefficient removal. For orientation: half-life means how long it takes for the measured level to halve. Low values mean rapid decline, high ones slow decline. What is called Cmax is the peak of the concentration-time curve. Broadly, the Tmax is the time at which the peak concentration occurs.

As for `NCCCNCCCCNCCCNc1cc2nc(-c3ccccc3Cl)[nH]c(=O)c2cc1F` [KR-39038, 7-((3-((4-((3-aminopropyl)amino)butyl)amino)propyl)amino)-2-(2-chlorophenyl)-6-fluoroquinazolin-4(3H)-one], the “Effect on angiotensin II-induced phosphorylation of HDAC5” value in the data set with HDAC5 phosphorylation is “effectively downregulated”. Also, the “Effect on angiotensin II-induced cellular hypertrophy (cell surface area)” value in data set [1] is given as “concentration-dependently inhibited”. The EC50 is 89.9 µM in “Cytotoxicity, L929”; > 100 µM in “Cytotoxicity, HFL-1”; > 100 µM in “Cytotoxicity, VERO”; 61.1 µM in the data set “Cytotoxicity, NIH3T3”. In addition, the Kp at 4 h is 11.3 in “in vivo” (brain); 16.9 in “in vivo” (heart); 26.3 in “in vivo” (kidney); 10.4 in “in vivo” (liver); 2.7 in the data set “in vivo” (lung); 1 in the data set “in vivo” (plasma). The Survival rate was determined as 80% with S.D. rats (10 mg/kg/day p.o., 12 weeks after MI) and 73% with S.D. rats (setting [3]). Moreover, the Fractional shortening in the data set on S.D. rats (10 mg/kg/day p.o.) amounted to 23.4 ± 1.6%; in the data set on S.D. rats (30 mg/kg/day p.o.) it was 22.6 ± 1.3%. Besides, the entries for the “Left ventricular ejection fraction” value in the data set with S.D. rats (10 mg/kg/day p.o.) and in the data set on S.D. rats (30 mg/kg/day p.o.) were 44.3 ± 2.6% and 43.4 ± 2.3%, respectively. For the same molecule, the Interstitial fibrosis in the data set with S.D. rats (setting [3]) was determined as 16.3 ± 1.6%. Further, the Myocyte cross-sectional area in the data set with S.D. rats (setting [3]) was 420.1 ± 21.2 µm^2. Also, on hERG channel, the IC50 is > 50 µM. The inhibition at 10 µM at GRK2 turned out to be 5.9%. The “Reduction in the left ventricular weight” value with C57BL/6 mice is reported as 43%. Besides, the AUC(0-inf) came out at 3400 ± 1000 ng·h/mL in [2] (setting [4]); 3400 ± 1000 ng·h/mL in data set [2] (Sprague-Dawley (S.D.), plasma, iv, 10 mg/kg); 8900 ± 5000 ng·h/mL in data set [2] (setting [5]). The molecule also came in with a Vd in data set [2] (setting [4]) of 1.2 ± 0.2 L/kg. In addition, the clearance in data set [2] (setting [4]) was 26.7 mL/min/kg. In addition, the results for the half-life in data set [2] (setting [4]) and in [2] (setting [5]) were 42 ± 2.4 min and 138 ± 174 min, respectively. The same molecule displayed a Cmax in [2] (setting [5]) of 5200 ± 2800 ng/mL. For the same molecule, the Tmax in data set [2] (setting [5]) worked out at 42 ± 12 min. Moreover, in data set [2] (300 mg/kg p.o., 300 mg/kg), the “F (oral bioavailability)” value was found to be 4.3 ± 2.4%.
Regarding `CC(C)c1ccc2oc3nc(N)c(C(=O)O)cc3c(=O)c2c1` [amlexanox, reference compound], the “Effect on angiotensin II-induced phosphorylation of HDAC5” value with HDAC5 phosphorylation is recorded as “effectively downregulated”. In data set [1], the “Effect on angiotensin II-induced cellular hypertrophy (cell surface area)” value is “concentration-dependently inhibited”.
The molecule `C[C@H](CS)C(=O)N1CCC[C@H]1C(=O)O` [captopril, reference compound] yielded a Survival rate with S.D. rats (setting [3]) of 67%.
